Laboratory results taken from patent EP0784620B1, “N-SUBSTITUTED PIPERIDINYL BICYCLIC BENZOATE DERIVATIVES” (JANSSEN PHARMACEUTICA N.V., priority 1994, dated 1996).
Structures can show the parent of a compound that is named as a salt.

Tested on: ileum segments
Experiment: Guinea Pig Ileum Coaxial Stimulation
Assay type: tissue-based
Conditions: Cavia porcellus, 5 min; concentration of 3.10^-9 M; five minutes after administration versus before; submaximal electrical stimulation (80% of maximal response); read-out: increase of the amplitude of the twitch response
Description: Example 10 : Guinea Pig Ileum Coaxial Stimulation. Dunkin Hartley guinea-pigs of both sexes (body weight ± 500 g) were killed by decapitation. The ileum was removed and cleansed with warmed and oxygenated Krebs-Henseleit solution. Non-terminal, intact ileum segments, 4.5 cm long, of the guinea pig were vertically suspended with a preload of 1 g in 100 ml Krebs-Henseleit solution (37.5°C), gassed with a mixture of 95% O2 and 5% CO2. Transmural excitation was applied over the whole length of the ileum segment by means of two platinum electrodes, the anode threaded through the lumen of the ileum, the cathode in the bathing solution. The preparation was excited with single rectangular […] [1 msec; 0.1 Hz; submaximal response (current leading to 80% of maximal reponse)] from a progammable stimulator. Contractions were measured isometrically. During the stabilization period of 30 min, the strips were repeatedly stretched to a tension of 2g, in order to obtain a steady state tension of lg. Before starting the electrical stimulation, a cumulative dose response curve of acetylcholine was given. The electrical stimulation was started at supramaximal current to determine the maximal amplitude of the twitch responses. When these responses were stable, a submaximal stimulation to obtain 80% of the maximal responses was given until the twitch responses were constant for at least 15 min, whereafter a single dose of the test compound was added to the bath fluid. The amplitude of the twitch response five minutes after the administration of the test compound is compared with the amplitude before the administration of the test compound.

Compound | activation at 0.003 µM
CC1(CCCN2CCC(OC(=O)c3cc(Cl)c(N)c4c3OCC4)CC2)OCCO1 [Compound 6, 1-[3-(2-methyl-1,3-dioxolan-2-yl)propyl]-4-piperidinyl 4-amino-5-chloro-2,3-dihydro-7-benzofurancarboxylate] | > 5%
Nc1c(Cl)cc(C(=O)OC2CCN(CCCC3CCCO3)CC2)c2c1CCO2 (racemic) [Compound 35] | > 5%
CC1(C)CCc2c(N)c(Cl)cc(C(=O)OC3CCN(CC4CCCO4)CC3)c2O1 (racemic) [Compound 32, 1-[(tetrahydro-2-furanyl)methyl]-4-piperidinyl 5-amino-6-chloro-3,4-dihydro-2,2-dimethyl-2H-1-benzopyran-8-carboxylate] | > 5%
Cc1nccnc1NCCN1CCC(OC(=O)c2cc(Cl)c(N)c3c2OCC3)CC1 [Compound 39, 1-[2-[(3-methyl-2-pyrazinyl)amino]ethyl]-4-piperidinyl 4-amino-5-chloro-2,3-dihydro-7-benzofurancarboxylate] | > 5%
COCCCN1CCC(OC(=O)c2cc(Cl)c(N)c3c2OCC3)CC1 [Compound 15, 1-(3-methoxypropyl)-4-piperidinyl 4-amino-5-chloro-2,3-dihydro-7-benzofuran-carboxylate] | > 5%
COC1CN(CCCC2(C)OCCO2)CCC1OC(=O)c1cc(Cl)c(N)c2c1OCC2 (stereo not shown) [Compound 46] | > 5%
Nc1c(Cl)cc(C(=O)OC2CCN(CCC3CCCO3)CC2)c2c1CCO2 (racemic) [Compound 36, 1-[2-(tetrahydro-2-furanyl)ethyl]-4-piperidinyl 4-amino-5-chloro-2,3-dihydro-7-benzofurancarboxylate] | > 5%
CCn1c(=O)n(CCN2CCC(OC(=O)c3cc(Cl)c(N)c4c3OCC4)CC2)c2ccccc21 [Compound 1] | > 5%
CC(=O)CCCN1CCC(OC(=O)c2cc(Cl)c(N)c3c2OCC3)CC1 [Compound 8, 1-(4-oxopentyl)-4-piperidinyl 4-amino-5-chloro-2,3-dihydro-7-benzofurancarboxylate] | > 5%
CCOC(=O)CCCN1CCC(OC(=O)c2cc(Cl)c(N)c3c2OCC3)CC1 [Compound 33, ethyl 4-[[(4-amino-5-chloro-2,3-dihydro-7-benzofuranyl)carbonyl]oxy]-1-piperidinebutanoate] | > 5%
COC1CN(CCCn2nc(Cl)ccc2=O)CCC1OC(=O)c1cc(Cl)c(N)c2c1OCC2 (stereo not shown) [Compound 50] | > 5%
Nc1c(Cl)cc(C(=O)OC2CCN(CCCn3nc(Cl)ccc3=O)CC2)c2c1CCO2 [Compound 7, 1-[3-(3-chloro-6-oxo-1(6H)-pyridazinyl)propyl]-4-piperidinyl 4-amino-5-chloro-2,3-dihydro-7-benzofurancarboxylate] | > 5%
CC(C)OCCCN1CCC(OC(=O)c2cc(Cl)c(N)c3c2OCC3)CC1 [Compound 4, 1-[3-(1-methylethoxy)propyl]-4-piperidinyl 4-amino-5-chloro-2,3-dihydro-7-benzofurancarboxylate monohydrochloride] | > 5%
Nc1c(Cl)cc(C(=O)OC2CCN(CCOCCO)CC2)c2c1CCO2 [Compound 14, 1-[2-(2-hydroxyethoxy)ethyl]-4-piperidinyl 4-amino-5-chloro-2,3-dihydro-7-benzo-furancarboxylate] | > 5%
Nc1c(Cl)cc(C(=O)OC2CCN(CC3CC3)CC2)c2c1CCO2 [Compound 34] | > 5%
CCN1CCC(OC(=O)c2cc(Cl)c(N)c3c2OC(C)(C)C3)CC1 [Compound 16] | > 5%
